From patent US5489582A, “14-deoxy-14α-cardenolides 3β-thioderivatives and pharmaceutical composition comprising same for treating cardiovascular disorders” (Sigma-Tau Industrie Farmaceutiche Riuntie S.p.A, priority 1992, dated 1996)
Where a name gives a salt, the structure may show the parent alone.

Assays:
[1] = tested on: hypertensive MHS rats; experiment: systolic blood pressure and heart rate in hypertensive MHS rats, indirect tail-cuff method, oral; assay type: in vivo, rat (MHS); settings: n=7, 20 mg/kg os daily for ten days, in METHOCEL 0.5% w/v; for SBP (systolic blood pressure): controls 174 +/- 5.5; for HR (heart rate): controls 378 +/- 11.0
Description: The ability of these compounds to lower blood pressure in adult hypertensive MHS rats was tested by the following method:
systolic blood pressure (SBP) and heart rate (HR) were measured by an indirect tail-cuff method in three-month old hypertensive MHS rats before beginning treatment (basal values). The rats were then subdivided in two groups of 7 animals each, one receiving the compound and the other, the control group, receiving only the vehicle. The compound, suspended in METHOCEL® 0.5% (w/v), for ten days, was administered daily by mouth. SBP and HR were measured daily 6 and 24 hours after the treatment. When ten-day treatment washout had been under way for at least two days, whether the treatment maintains SBP low or re-establish the basal values was verified. […]

[2] = target: T1, Na^+,K^+ -ATPase (Homo sapiens, UniProt P05023); experiment: displacement of the specific 3H-ouabain binding from the purified Na+,K+-ATPase receptor
T1 construct: Na^+,K^+ -ATPase receptor purified according to Jorghensen; from tissue
Excerpt: (§1) To test the affinity for the receptor site of the Na^+,K^+ -ATPase and the agonist or inhibitory activity on the enzyme, the following tests were used: a) displacement of the specific 3H-ouabain binding from the Na^+,K^+ -ATPase receptor purified according to Jorghensen (Jorghensen P., BBA, 1974, 356, 36) and Erdmann (Erdmann E. et al., Arzneim. Forsh., 1984, 34 (II), 1314); b) inhibition of the activity of the purified Na^+,K^+ -ATPase measured as % of hydrolysis of ^32 P-ATP in presence and in absence of the tested compound (Mall F. et al., Biochem. Pharmacol., 1984, 33, 47).

[3] = target: T1, Na^+,K^+ -ATPase; experiment: inhibition of the activity of the purified Na+,K+-ATPase (% hydrolysis of 32P-ATP); assay type: biochemical
Excerpt: as §1

[4] = 3H-ouabain displacement, purified Na+,K+-ATPase, read-out: Binding ^3 H-Ouab. Displacement log. IC50 (converted)
[5] = purified Na+,K+-ATPase, 32P-ATP hydrolysis, read-out: Inhibitory Activity log. IC50 (converted)

Structure (SMILES): C[C@]12CC[C@H](O)C[C@H]1CC[C@@H]1[C@@H]2CC[C@]2(C)[C@@H](C3=CC(=O)OC3)CC[C@]12O [DIGI, digitoxigenin, reference compound]
- SBP (systolic blood pressure) [1]: 173 +/- 4.0 mm Hg
- HR (heart rate) [1]: 380 +/- 10.0 beats/min.

Structure (SMILES): C[C@]12CC[C@H](SCCN3CCCC3)C[C@H]1CC[C@@H]1[C@@H]2CC[C@]2(C)[C@@H](C3=CC(=O)OC3)CC[C@@H]12 [I-a, 3β-(2-(1-Pyrrolidinyl)ethylthio)-5β,14α-card-20(22)-enolideOxalate]
- IC50 [2, 4]: 3160 nM
- IC50 [3]: 5010 nM

Structure (SMILES): CN(C)CCCS[C@H]1CC[C@@]2(C)[C@H](CC[C@@H]3[C@@H]2CC[C@]2(C)[C@@H](C4=CC(=O)OC4)CC[C@@H]32)C1 [I-b, 3β-(3-Dimethylaminopropylthio)-5β,14α-card-20(22)-enolide Oxalate]
- IC50 [2, 4]: 1000 nM
- IC50 [3]: 3160 nM

Structure (SMILES): C[C@]12CC[C@H](SCCCN3CCNCC3)C[C@H]1CC[C@@H]1[C@@H]2CC[C@]2(C)[C@@H](C3=CC(=O)OC3)CC[C@@H]12 [I-c, 3β-(3-(1-Piperazinyl)propylthio)-5β,14α-card-20(22)-enolideDioxalate]
- SBP (systolic blood pressure) [1]: 144 +/- 6.2 mm Hg
- HR (heart rate) [1]: 390 +/- 12.0 beats/min.
- IC50 [2, 4]: 794 nM
- IC50 [3]: 1580 nM

Structure (SMILES): C[C@]12CC[C@H](SCCCN)C[C@H]1CC[C@@H]1[C@@H]2CC[C@]2(C)[C@@H](C3=CC(=O)OC3)CC[C@@H]12 [I-d, 3β-(3-Aminopropylthio)-5β,14α-card-20(22)-enolide Oxalate]
- SBP (systolic blood pressure) [1]: 154 +/- 5.2 mm Hg
- HR (heart rate) [1]: 384 +/- 10.3 beats/min.
- IC50 [2]: 1260 nM
- IC50 [3]: 2000 nM

Structure (SMILES): C[C@]12CC[C@H](SCC(O)CN3CCCC3)C[C@H]1CC[C@@H]1[C@@H]2CC[C@]2(C)[C@@H](C3=CC(=O)OC3)CC[C@@H]12 (stereo partly drawn) [I-e, 3β-(3-(1-Pirrolidinyl)-2-hydroxypropylthio)-5β,14α-card-20(22)-enolide]
- IC50 [2, 4]: 2000 nM
- IC50 [3, 5]: 3980 nM

Structure (SMILES): C[C@]12CC[C@H]3[C@@H](CCC4=C[C@@H](SCCCN)CC[C@@]43C)[C@@H]1CC[C@@H]2C1=CC(=O)OC1 [I-f, 3β-(3-Aminopropylthio)-14α-card-4,20(22)-dienolide Oxalate]
- SBP (systolic blood pressure) [1]: 148 +/- 5.6 mm Hg
- HR (heart rate) [1]: 386 +/- 9.3 beats/min.
- IC50 [2, 4]: 1260 nM
- IC50 [3, 5]: 3160 nM

Structure (SMILES): C[C@]12CC[C@H]3[C@@H](CC=C4C[C@@H](SCCCN)CC[C@@]43C)[C@@H]1CC[C@@H]2C1=CC(=O)OC1 [I-g, 3β-(3-Aminopropylthio)-14α-card-5,20(22)-dienolide Oxalate]
- SBP (systolic blood pressure) [1]: 150 +/- 5.2 mm Hg
- HR (heart rate) [1]: 383 +/- 9.6 beats/min.
- IC50 [2, 4]: 1000 nM
- IC50 [3, 5]: 2000 nM

Structure (SMILES): C[C@]12CC[C@H](SCCCN)C[C@@H]1CC[C@@H]1[C@@H]2CC[C@]2(C)[C@@H](C3=CC(=O)OC3)CC[C@@H]12 [I-h, 3β-(3-Aminopropylthio)-5α,14α-card-20(22)-enolide Oxalate]
- SBP (systolic blood pressure) [1]: 158 +/- 5.4 mm Hg
- HR (heart rate) [1]: 379 +/- 10.4 beats/min.
- IC50 [2]: 1580 nM
- IC50 [3]: 3980 nM
